In US6174909A, “4-aminotetrahydrobenzisoxazole or -isothiazole compounds” (H. Lundbeck A/S, priority 1995, dated 2001):
Counter-ions that a name gives are not always drawn.

Assays:
[1] = system: GABA uptake in synaptosomes; test: GABA uptake inhibition in synaptosomes (overall, i.e. neuronal and glial); type: biochemical; conditions: values marked * = Preliminary Data
Method: The inhibition of GABA Uptake was performed by the method described by Falch et. al, Drug Dev. Res., 1990,21, 169-188. By this method the overall, i.e. neuronal and glial, inhibition of GABA uptake is determined.

[2] = system: isoniazide induced convulsions in mice; test: Isoniazid antagonism (antagonism of isoniazide induced convulsions in mice); type: in vivo, mice (male NMRI/BOM); conditions: Mus musculus, sc, 30 min before 300 mg isoniazide s.c., protected = no convulsions within 60 min, log probit analysis
Method: The test is a test for antagonism of isoniazide induced convulsions in mice.
The test substance is given s.c. to mice (male NMRI/BOM, body weight 20-25 g) and 30 min later 300 mg isoniazide is given s.c. Five mice are used per dose and a control group only receiving isoniazide is included. This dose of isoniazide induces intermittent tonic seizures.
The animals are placed individually in Macrolon type II cages and the time when convulsions first occur is recorded. The experiment is stopped after 90 min. The animals that have not had convulsions within 60 min. are recorded as + (protected). The results, i.e. the number of protected mice pr number of tested mice are stated in fractions as follows: 0/5, 1/5 . . . , 5/5.

SMILES	IC50 ([1]; hydrobromide)	ED50 [2]	IC50 [1]
CNC1CCCc2onc(O)c21 (single isomer, unassigned; (+)) [Compound 6c, (+)-3-hydroxy-4-methylamino-4,5,6,7-tetrahydro-1,2-benzisoxazole, hydrobromide]	42 µM	> 320 µmol/kg	
CN(CCCC(c1ccccc1)c1ccccc1)C1CCCc2onc(O)c21 (racemic) [Compound 11b, (R,S)-4-[-N -(4,4-Diphenylbut-1-yl)-N-methylamino]-3-hydroxy-4,5,6,7-tetrahydro-1,2-benzisoxazole, hydrobromide]		640 µmol/kg	0.41 µM
Cc1ccsc1C(=CCCN(C)C1CCCc2onc(O)c21)c1sccc1C (racemic) [Compound 16d, (R,S)-4-[N-(4,4-bis[3-methylthien-2-yl]-3-butenyl)-N-methylamino]-3-hydroxy-4,5,6,7-tetrahydro-1,2-benzisoxazole hydrochloride]		63 µmol/kg	0.31 µM
CNC(=O)n1oc2c(c1=O)C(NC)CCC2 (racemic) [Compound 15b]		72 µmol/kg	80 µM
Oc1noc2c1C(NCCCC(c1ccc(F)cc1)c1ccc(F)cc1)CCC2 (racemic) [Compound 8b, (R,S)-4-[4,4-Bis(4-fluorophenyl)butan-1-ylamino]-3-hydroxy-4,5,6,7-tetrahydro-1,2-benzisoxazole, hydrobromide]		110 µmol/kg	0.24 µM
CN(CCOC(c1ccc(Cl)cc1)c1ccc(Cl)cc1)C1CCCc2onc(O)c21 (racemic) [Compound 16b, (R,S)-4-[N -[bis (4-chlorophenyl)methyl-2-oxyethyl]-N -methylamino]-3-hydroxy-4,5,6,7-tetrahydro-1,2-benzisoxazole, sodium salt]		81 µmol/kg	4.9 µM
Oc1noc2c1C(NCc1ccccc1)CCC2 (racemic) [Compound 41a, (R,S)-3-Hydroxy-4-benzylamino-4,5,6,7-tetrahydro-1,2-benzisoxazole hydrobromide]		77 µmol/kg	140 µM
CN(CCOC(c1ccc(F)cc1)c1ccc(F)cc1)C1CCCc2onc(O)c21 (racemic) [Compound 16a, (R,S)-4-[N-[bis(4-fluorophenyl)methyl-2-oxyethyl]-N-methylamino]-3-hydroxy-4,5,6,7-tetrahydro-1,2-benzisoxazole, sodium salt]		55 µmol/kg	4.5 µM
CC(=O)OCCNC1CCCc2onc(O)c21 (racemic) [Compound 8c, (R,S)-4-(2-Acetyloxyethylamino)-3-hydroxy-4,5,6,7-tetrahydro-1,2-benzisoxazole, hydrobromide]		> 120 µmol/kg	120 µM
Oc1noc2c1C(NCCCCc1ccccc1)CCC2 (racemic) [Compound 8h, (R,S)-4-(4-phenylbut-1-ylamino]-3-hydroxy-4,5,6,7-tetrahydro-1,2-benzisoxazole, hydrobromide]		150 µmol/kg	4.8 µM
CNC1CCCc2onc(OCOC(=O)C(C)(C)C)c21 (racemic) [Compound 14a, (R,S)-4-methylamino-3-pivaloyloxymethyloxy-4,5,6,7-tetrahydro-1,2-benzisoxazole, hemioxalate]		86 µmol/kg	> 300 µM
CCNC1CCCc2onc(O)c21 (racemic) [Compound 8e, (R,S)-4-Ethylamino-3-hydroxy-4,5,6,7-tetrahydro-1,2-benzisoxazole, hydrobromide]		> 300 µmol/kg	100 µM
Oc1noc2c1C(N1CCCC1)CCC2 (racemic) [Compound 8d, (R,S)-3-Hydroxy-4-(1-pyrrolidinyl)-4,5,6,7-tetrahydro-1,2-benzisoxazole, hydrobromide]		> 140 µmol/kg	210 µM
CN(CCC=C(c1ccccc1)c1ccccc1)C1CCCc2onc(O)c21 (racemic) [Compound 20a, (R,S)-3-Hydroxy-4-[N-(4,4-diphenyl-3-butenyl)methylamino]4,5,6,7-tetrahydro-1,2-benzisoxazole, hydrochloride]		97 µmol/kg	0.37 µM
OCCNC1CCCc2onc(O)c21 (racemic) [Compound 9a, (R,S)-4-(2-Hydroxyethylamino)-3-hydroxy-4,5,6,7-tetrahydro-1,2-benzisoxazole, hydrobromide]		> 140 µmol/kg	180 µM
CNC1CCCc2onc(O)c21 (racemic) [Compound 8a, (R,S)-3-Hydroxy-4-methylamino-4,5,6,7-tetrahydro-1,2-benzisoxazole, hydrobromide]		> 320 µmol/kg	65 µM
